Experimental data taken from patent US10047080B2, “(R)-2-methyl-piperazine derivatives as CXCR3 receptor modulators” (Idorsia Pharmaceuticals Ltd., priority 2015, dated 2018).

What was measured:
Type in all cases: cell-based
CXCR3 = CXCR3 (Homo sapiens (Human), UniProt P49682); test: Receptor internalization assay (RIA) in human whole blood; details: final CXCL10 9 nM, CXCR3 surface expression on CD4 positive cells
Protocol: Stock solutions of test compounds are made up at a concentration of 10 mM in DMSO, and serially diluted in PBS containing 0.5% BSA to concentrations required for inhibition dose response curves. Diluted compounds are then mixed with an equal volume of CXCL10 (Peprotech) diluted in PBS. Anticoagulated venous human whole blood is added to the mixture, which is then incubated in a CO2 incubator at 37° C. to allow for ligand mediated receptor internalization (final CXCL10 concentration is 9 nM). After 30 min, the blood is mixed with fluorescently labeled CXCR3 and CD4 specific antibodies (Becton Dickinson) and incubated on ice for 10 minutes. Samples are then mixed with BD FACS Lysing Solution (Becton Dickinson) in order to eliminate red blood cells. After washing the cells with PBS containing 0.5% BSA, the samples are then analyzed in a flow cytometer (FACS Canto II, Becton Dickinson). For data analysis using FACSDiva software (Becton Dickinson), the mean fluorescence corresponding to CXCR3 cell surface expression was determined on CD4 positive cells.
(§1) The calculated IC50 values may fluctuate depending on the daily assay performance. Fluctuations of this kind are known to those skilled in the art. In the case where IC50 values have been determined several times for the same compound, mean values are given. Data for the FLIPR assay are shown in Table 1 and for the receptor internalization assay (RIA) in Table 2.

hERG K channel = hERG K channel (Homo sapiens (Human), UniProt Q12809); test: hERG Q-Patch assay; details: CHO cells expressing hERG, K+ tail current
Protocol: Compounds are evaluated for block of the hERG K channel using CHO cells stably expressing the hERG gene (accession number U04270, bSys, Witterswil, Switzerland) and the QPatch robotic platform (Sophion, Ballerup, Denmark) in single-cell mode at room temperature. Cells are grown in culture flasks at 37° C. in 5% CO2, in culture medium (Ham's F-12 Nutrient Mixture, Invitrogen 21765-029) supplemented with 9% (v/v) fetal calf serum, 0.9% Penicillin/Streptomycin (10,000 U/mL, Invitrogen 15140148), 100 μg/mL Hygromycin B (Invitrogen 10687010). When the cells are ˜80% confluent (every 2-3 days), they are either split for further culture or used for electrophysiology. For further culture, cells are detached with 0.25% Trypsin EDTA solution (Invitrogen 25200-056) and a fraction of the cells (10-30%) is reseeded in culture medium. For electrophysiology, on the experimental day, cells are detached with 0.25% Trypsin EDTA solution and all cells are suspended in suspension medium (293 SFM II, Invitrogen 11686-029) supplemented with 20 mM HEPES and 0.04 mg/mL Trypsin inhibitor. Cells are kept in suspension medium at 32-35° C. in the QPatch robot until use, at which time aliquots are transferred to the extracellular solution (in mM: NaCl 150; KCl 4; CaCl2 1.2; MgCl2 1; HEPES 10; pH 7.4 with NaOH) containing 0.3% v/v DMSO and applied to the test plates. K+ currents are measured with the patch-voltage-clamp technique in the whole-cell configuration with the internal solution (in mM: KCl, 140; NaCl, 10; MgCl2, 1; HEPES, 10; EGTA, 5; pH=7.2 with KOH). Currents are low-pass filtered using the internal Bessel filter of the QPatch robot with a cut-off frequency of 2 kHz and are digitized at 10 kHz. K^+ tail currents are produced from a holding voltage of −80 mV by a 500-ms depolarization to +20 mV followed by a 500-ms repolarization to −40 mV; tail current amplitudes are measured at the end of the repolarization to −40 mV. The pulse pattern is repeated every 10 sec during the experiment, baseline K^+ current is measured after 3 min in extracellular solution, test-solution containing compound is then applied, and K^+ current in presence of compound is measured 3 minutes after application to the cells. The respective test-solution is prepared by (1) dissolving the test-compound in pure DMSO, (2) diluting this DMSO solution in extracellular solution, and (3) adding further DMSO, such that the final test-solution has a concentration of either 300 nM or 3000 nM of the test-compound and contains 0.3% v/v DMSO. Compound effects are quantified as % block by dividing the current in presence of compound by the baseline current; two or three experiments are performed for each compound and the final value represents the mean of the results of each experiment.

human CXCR3A = human CXCR3A (Homo sapiens (Human), UniProt P49682); test: FLIPR assay (calcium flux, CXCL10-induced); details: CHO-K1 cells expressing human CXCR3A coupled to Galpha(16); CXCL10 agonist at 20 nM
Protocol: The bioactivity of compounds is tested in a fluorometric imaging plate reader (FLIPR: Molecular Devices) using engineered CHO-K1 cells expressing the human CXCR3A (GenBank: AY242128) coupled to a G protein (Galpha(16)). Cells are plated the day prior to bioassay in F12 medium supplemented with 10% FBS and G418 and hygromycin antibiotics to maintain recombinant selection. At the day of bioassay, cells are washed and dye loaded for one hour with Fluo-4-AM (Invitrogen) in Hanks Balanced Salt Solution (Invitrogen), buffered with 20 mM Hepes at pH 7.4 and sodium bicarbonate (0.038%), containing 5 mM probenecid. This buffer, but lacking the dye and containing probenecid at a concentration of 2.5 mM, is also used for washing steps (wash buffer); or lacking both dye and probenecid but supplemented with 0.1% BSA for compound dilution steps (dilution buffer). Cells are washed free of excess dye and 60 microliter of wash buffer is added. Stock solutions of test compounds are made up at a concentration of 10 mM in DMSO, and serially diluted in dilution buffer to concentrations required for inhibition dose response curves. After a 10 minute incubation period at 37° C., 10 microliters of each compound dilution are transferred from a compound plate to the plate containing the recombinant cells in the FLIPR instrument according to the manufacturer's instructions. Following basal readings, 10 microliter CXCL10 agonist at a concentration of 20 nM (from Peprotech) is added, again using the FLIPR instrument. Changes in fluorescence are monitored before and after addition of the test compounds. Emission peak values above base level after CXCL10 addition are exported after base line subtraction.
as §1

human CXCR3A, sequence (P49682 whole entry): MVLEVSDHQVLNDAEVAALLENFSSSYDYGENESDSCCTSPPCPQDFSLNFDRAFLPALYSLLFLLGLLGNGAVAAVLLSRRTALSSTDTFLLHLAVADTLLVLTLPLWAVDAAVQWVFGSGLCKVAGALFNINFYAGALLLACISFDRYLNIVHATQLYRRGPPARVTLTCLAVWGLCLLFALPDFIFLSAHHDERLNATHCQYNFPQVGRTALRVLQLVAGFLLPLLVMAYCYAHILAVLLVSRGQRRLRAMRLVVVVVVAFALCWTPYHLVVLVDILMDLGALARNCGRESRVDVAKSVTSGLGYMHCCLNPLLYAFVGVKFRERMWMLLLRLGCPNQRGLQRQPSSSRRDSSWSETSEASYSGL
CXCR3, sequence (P49682 whole entry): as above
hERG K channel, sequence (Q12809 whole entry): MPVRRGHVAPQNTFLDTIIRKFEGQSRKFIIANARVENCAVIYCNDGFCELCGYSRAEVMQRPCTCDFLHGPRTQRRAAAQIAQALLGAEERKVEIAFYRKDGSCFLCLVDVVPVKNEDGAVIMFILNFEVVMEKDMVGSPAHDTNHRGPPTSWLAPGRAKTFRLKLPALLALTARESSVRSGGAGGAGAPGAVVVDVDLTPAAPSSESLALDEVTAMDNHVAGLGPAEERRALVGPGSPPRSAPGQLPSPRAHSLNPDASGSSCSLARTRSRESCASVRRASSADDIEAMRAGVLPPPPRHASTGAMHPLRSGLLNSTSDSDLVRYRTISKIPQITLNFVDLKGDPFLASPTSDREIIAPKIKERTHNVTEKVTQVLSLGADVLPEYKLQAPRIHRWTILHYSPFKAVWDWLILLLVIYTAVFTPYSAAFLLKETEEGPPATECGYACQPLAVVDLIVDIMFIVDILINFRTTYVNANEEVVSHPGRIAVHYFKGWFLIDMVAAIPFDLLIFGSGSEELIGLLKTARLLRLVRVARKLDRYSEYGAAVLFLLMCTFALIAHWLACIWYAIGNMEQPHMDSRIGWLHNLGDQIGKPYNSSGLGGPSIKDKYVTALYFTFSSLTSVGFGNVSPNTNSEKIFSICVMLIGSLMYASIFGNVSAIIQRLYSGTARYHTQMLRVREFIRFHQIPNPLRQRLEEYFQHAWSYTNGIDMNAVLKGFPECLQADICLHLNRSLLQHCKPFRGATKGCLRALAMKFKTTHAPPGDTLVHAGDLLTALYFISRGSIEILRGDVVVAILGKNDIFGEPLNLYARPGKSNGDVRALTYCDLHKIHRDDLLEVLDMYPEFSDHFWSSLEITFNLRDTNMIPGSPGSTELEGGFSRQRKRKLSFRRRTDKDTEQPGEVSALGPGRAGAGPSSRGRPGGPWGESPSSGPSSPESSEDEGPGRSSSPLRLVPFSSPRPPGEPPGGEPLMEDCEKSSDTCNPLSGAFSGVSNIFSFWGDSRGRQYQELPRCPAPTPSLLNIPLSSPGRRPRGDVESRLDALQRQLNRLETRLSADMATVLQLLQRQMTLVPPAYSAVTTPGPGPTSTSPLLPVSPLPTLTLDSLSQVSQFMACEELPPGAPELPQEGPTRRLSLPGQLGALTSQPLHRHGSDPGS

| Compound | IC50 (CXCR3) [nM] | % block (hERG K channel; concentration 300 nM) [%] | % block (hERG K channel; concentration 3000 nM) [%] | IC50 (human CXCR3A) [nM] |
| --- | --- | --- | --- | --- |
| CCOc1ncc(-c2nc(C(F)(F)F)sc2N2CCN(C(=O)Cn3cnc(C)n3)[C@H](C)C2)cn1 [Example 19, 1-{(R)-4-[4-(2-Ethoxy-pyrimidin-5-yl)-2-trifluoromethyl-thiazol-5-yl]-2-methyl-piperazin-1-yl}-2-(3-methyl-[1,2,4]triazol-1-yl)-ethanone] | 211 | 9 | 14 | 1.8 |
| C[C@@H]1CN(c2sc(C(F)(F)F)nc2-c2cnc(C(F)(F)F)nc2)CCN1C(=O)Cn1cnc(C(N)=O)n1 [Example 5, 1-(2-{(R)-2-Methyl-4-[2-trifluoromethyl-4-(2-trifluoromethyl-pyrimidin-5-yl)-thiazol-5-yl]-piperazin-1-yl}-2-oxo-ethyl)-1H-[1,2,4]triazole-3-carboxylic acid amide] | 1710 | 1 | 5 | 12 |
| CCOc1ncc(-c2nc(C(F)(F)F)sc2N2CCN(C(=O)Cn3cnc(COC)n3)[C@H](C)C2)cn1 [Example 4, 1-{(R)-4-[4-(2-Ethoxy-pyrimidin-5-yl)-2-trifluoromethyl-thiazol-5-yl]-2-methyl-piperazin-1-yl}-2-(3-methoxymethyl-[1,2,4]triazol-1-yl)-ethanone] | 950 | 5 | 10 | 13 |
| CCc1ncn(CC(=O)N2CCN(c3sc(C(F)(F)F)nc3-c3cnc(C(F)(F)F)nc3)C[C@H]2C)n1 [Example 6, 2-(3-Ethyl-[1,2,4]triazol-1-yl)-1-{(R)-2-methyl-4-[2-trifluoromethyl-4-(2-trifluoromethyl-pyrimidin-5-yl)-thiazol-5-yl]-piperazin-1-yl}-ethanone] | 148 | 5 | 22 | 2 |
| CC(C)c1ncn(CC(=O)N2CCN(c3sc(C(F)(F)F)nc3-c3cnc(OC4CCC4)nc3)C[C@H]2C)n1 [Example 14, 1-{(R)-4-[4-(2-Cyclobutoxy-pyrimidin-5-yl)-2-trifluoromethyl-thiazol-5-yl]-2-methyl-piperazin-1-yl}-2-(3-isopropyl-[1,2,4]triazol-1-yl)-ethanone] | 459 | 4 | 27 | 1.2 |
| CC(C)c1ncn(CC(=O)N2CCN(c3sc(C(F)(F)F)nc3-c3cnc(C4CC4)nc3)C[C@H]2C)n1 [Example 16, 1-{(R)-4-[4-(2-Cyclopropyl-pyrimidin-5-yl)-2-trifluoromethyl-thiazol-5-yl]-2-methyl-piperazin-1-yl}-2-(3-isopropyl-[1,2,4]triazol-1-yl)-ethanone] | 524 | 1 | 25 | 0.7 |
| CCOc1ncc(-c2nc(C(F)(F)F)sc2N2CCN(C(=O)Cn3cnc(C(C)C)n3)[C@H](C)C2)cn1 [Example 1, 1-{(R)-4-[4-(2-Ethoxy-pyrimidin-5-yl)-2-trifluoromethyl-thiazol-5-yl]-2-methyl-piperazin-1-yl}-2-(3-isopropyl-[1,2,4]triazol-1-yl)-ethanone] | 299 | 6 | 20 | 2.3 |
| CC(C)c1ncn(CC(=O)N2CCN(c3sc(C(F)(F)F)nc3-c3cnc(C(F)(F)F)nc3)C[C@H]2C)n1 [Example 7, 2-(3-Isopropyl-[1,2,4]triazol-1-yl)-1-{(R)-2-methyl-4-[2-trifluoromethyl-4-(2-trifluoromethyl-pyrimidin-5-yl)-thiazol-5-yl]-piperazin-1-yl}-ethanone] | 174 | 5 | 24 | 1.3 |
